Patent publication US8372967B2, “Compounds and methods for modulating expression of GCCR” (Isis Pharmaceuticals, Inc., priority 2006, dated 2013)
Strand notation (5' to 3'): a small letter for the sugar, then the base; units joined by * are phosphorothioate-linked, units joined directly phosphodiester-linked; [ ] holds rarer units or linkages, { } end groups; capitals alone tell only the bases. e = 2'-O-(2-methoxyethyl) (MOE); [5mC] = 5-methylcytosine; d = 2'-deoxy (DNA)

Key:
PTP1B mRNA = test: Dose response for human PTP1B in HuVEC cells, PPS 198 and PPS 3000 (Tables 86, 87); type: cell-based
Procedure: Human vascular endothelial (HuVEC) cells were plated at a density of 5000 cells per well and treated as described herein with nM concentrations of short antisense compound as indicated in Table 86. After the treatment period, RNA was isolated from the cells and PTP1B mRNA levels were measured by quantitative real-time PCR, as described herein. PTP1B mRNA levels were adjusted according to total RNA content as measured by RIBOGREEN®. Two different human PTP1B primer probe sets were used to measure mRNA levels. Results with Primer Probe Set (PPS) 198 are shown in Table 86, and results with Primer Probe Set (PPS) 3000 are shown in Table 87. Results are presented as percent inhibition of PTP1B mRNA expression relative to untreated control cells.

PCSK9 mRNA = type: cell-based, human; settings: Hep3B cells, 100 nM, relative to untreated control cells, 0 = no reduction observed
Procedure: When cells reached appropriate confluency, they were treated with oligonucleotide using LIPOFECTIN® as described. […] Cells were treated and data were obtained in duplicate or triplicate. […] Cells were harvested 16-24 hours after oligonucleotide treatment.
Prior to quantitative PCR analysis, primer-probe sets specific to the target gene being measured were evaluated for their ability to be “multiplexed” with a GAPDH amplification reaction. After isolation the RNA is subjected to sequential reverse transcriptase (RT) reaction and real-time PCR, both of which are performed in the same well. RT and PCR reagents were obtained from Invitrogen Life Technologies (Carlsbad, Calif.). […] The RT reaction was carried out by incubation for 30 minutes at 48° C. Following a 10 minute incubation at 95° C. to activate the PLATIN 9M® Taq, 40 cycles of a two-step PCR protocol were carried out: 95° C. for 15 seconds (denaturation) followed by 60° C. for 1.5 minutes (annealing/extension).
170 μL of RiboGreen® working reagent (RiboGreen® reagent diluted 1:350 in 10 mM Tris-HCl, 1 mM EDTA, pH 7.5) was pipetted into a 96-well plate containing 30 μL purified cellular RNA. The plate was read in a CytoFluor® 4000 (PE Applied Biosystems) with excitation at 485 nm and emission at 530 nm.
Short antisense compounds targeted to a PCSK9 nucleic acid were tested for their effects on PCSK9 mRNA in vitro. The Isis No, gapmer motif and SEQ ID NO of each short antisense compound are shown again in Table 75. Cultured Hep3B cells were treated with 100 nM of short antisense compound. 5-10-5 MOE gapmers targeted to a PCSK9 nucleic acid were used as positive controls. After the treatment period, RNA was isolated from the cells and PCSK9 mRNA levels were measured by quantitative real-time PCR, as described herein. PCSK9 mRNA levels were adjusted according to total RNA content as measured by RIBOGREEN®. Results are presented in Table 75 as percent inhibition of PCSK9 (% Inhib), relative to untreated control cells.

Row | Substance | % Inhibition (PTP1B mRNA; PPS 198, 1.11 nM) [%] | % Inhibition (PTP1B mRNA; PPS 198, 3.33 nM) [%] | % Inhibition (PTP1B mRNA; PPS 198, 10.0 nM) [%] | % Inhibition (PTP1B mRNA; PPS 198, 30.0 nM) [%] | % Inhibition (PTP1B mRNA; PPS 3000, 1.11 nM) [%] | % Inhibition (PTP1B mRNA; PPS 3000, 3.33 nM) [%] | % Inhibition (PTP1B mRNA; PPS 3000, 10.0 nM) [%] | % Inhibition (PTP1B mRNA; PPS 3000, 30.0 nM) [%] | % Inhib (PCSK9 mRNA) [%]
1 | 398105 (eT*eG*d[5mC]*dA*d[5mC]*dA*dG*dG*d[5mC]*dA*dG*dG*eT*eT) [compound 398105] | 0 | 25 | 79 | 90 | 0 | 35 | 79 | 93 | –
2 | 398112 (e[5mC]*eA*dG*d[5mC]*d[5mC]*dT*dG*dG*d[5mC]*dA*d[5mC]*d[5mC]*eT*eA) [compound 398112] | 1 | 10 | 73 | 93 | 0 | 26 | 77 | 94 | –
3 | 398120 (eG*eT*dT*d[5mC]*dA*dA*dG*d[5mC]*dG*dG*d[5mC]*d[5mC]*eT*eA) [compound 398120] | 0 | 31 | 80 | 96 | 0 | 35 | 79 | 93 | –
4 | 398173 (e[5mC]*dA*dG*d[5mC]*d[5mC]*dT*dG*dG*dG*d[5mC]*dA*e[5mC]) [compound 398173] | 0 | 4 | 80 | 97 | 0 | 18 | 80 | 90 | –
5 | 399096 (eT*eG*d[5mC]*dT*d[5mC]*dG*dA*dA*d[5mC]*dT*d[5mC]*d[5mC]*eT*eT; antisense) [compound 399096] | 3 | 30 | 78 | 96 | 0 | 23 | 75 | 94 | –
6 | 399102 (eG*eA*dA*dG*dT*d[5mC]*dA*d[5mC]*dT*dG*dG*d[5mC]*eT*eT; antisense) [compound 399102] | 0 | 15 | 62 | 88 | 0 | 9 | 60 | 87 | –
7 | 399113 (eG*eT*dT*dA*dG*dG*d[5mC]*dA*dA*dA*dG*dG*eG*e[5mC]; antisense) [compound 399113] | 0 | 31 | 72 | 90 | 0 | 9 | 65 | 90 | –
8 | 399132 (eG*eG*dG*d[5mC]*dT*dG*dA*dG*dT*dG*dA*d[5mC]*e[5mC]*e[5mC]; antisense) [compound 399132] | 0 | 32 | 75 | 95 | 0 | 26 | 76 | 91 | –
9 | 399173 (eA*eT*dG*d[5mC]*dT*dA*dG*dT*dG*d[5mC]*dA*d[5mC]*eT*eA; antisense) [compound 399173] | 0 | 24 | 63 | 89 | 0 | 11 | 59 | 92 | –
10 | 399208 (eA*eG*d[5mC]*dT*d[5mC]*dG*d[5mC]*dT*dA*d[5mC]*d[5mC]*dT*e[5mC]*eT; antisense) [compound 399208] | 0 | 37 | 86 | 93 | 0 | 47 | 85 | 96 | –
11 | 400371 (antisense eA*eG*dT*dT*dA*d[5mC]*dA*dA*dA*dA*dG*d[5mC]*eA*eA) [compound 400371] | – | – | – | – | – | – | – | – | 0
